How the values were obtained:
[1] = test system: Stagonospora nodorum; assay: Test D: wheat glume blotch, preventive spray on wheat seedlings; conditions: 100 = 100% disease control; for Test D disease control rating: 10 ppm test solution, 0 = no control relative to controls
[2] = test system: Erysiphe graminis f sp. tritici; assay: Test G: wheat powdery mildew, preventive spray on wheat seedlings; conditions: 100 = 100% disease control; for Test G disease control rating: 10 ppm test solution, 0 = no control relative to controls
[3] = test system: Zymoseptoria tritici; assay: Test E: wheat leaf blotch, preventive spray on wheat seedlings; conditions: 100 = 100% disease control; for Test E disease control rating: 10 ppm test solution, 0 = no control relative to controls
[4] = test system: Puccinia recondita f sp. tritici; assay: Test F: wheat leaf rust, preventive spray on wheat seedlings; conditions: 100 = 100% disease control; for Test F disease control rating: 10 ppm test solution, 0 = no control relative to controls

| SMILES | Test D rating (% disease control) ([1]; 10 ppm, wheat glume blotch, 0 = no control) [%] | Test G rating (% disease control) ([2]; 10 ppm, wheat powdery mildew, 0 = no control) [%] | Test E rating (% disease control) ([3]; 10 ppm, wheat leaf blotch, 0 = no control) [%] | Test F rating (% disease control) ([4]; 10 ppm, wheat leaf rust, 0 = no control) [%] | Test D disease control rating [1] [%] | Test G disease control rating [2] [%] | Test E disease control rating [3] [%] | Test F disease control rating [4] [%] |
| --- | --- | --- | --- | --- | --- | --- | --- | --- |
| OC(Cn1cncn1)(C1=NOC(Cc2ccc(-c3ccccc3)cc2)C1)c1ccc(Cl)cc1 (single isomer, unassigned) [Compound 204] | 77 | 99 | 0 | 100 | – | – | – | – |
| CC(C)CC(O)(Cn1cncn1)C1=NOC(COc2ccc(Cl)cc2)C1 (single isomer, unassigned) [Compound 268] | – | – | – | – | 82 | 95 | 0 | 100 |
| CC(C)CC(O)(Cn1cncn1)C1=NOC(COc2ccc(Cl)cc2)C1 (single isomer, unassigned) [Compound 267] | – | – | – | – | 100 | 100 | 3 | 100 |
| CC1(C(O)(Cn2cncn2)C2=NOC(COc3ccc(Cl)cc3)C2)CC1 (single isomer, unassigned) [Compound 224] | – | – | – | – | – | 100 | 30 | 100 |
| CC(C)(C)C(O)(Cn1cncn1)C1=NOC(COc2ccc(Cl)cc2Cl)C1 (single isomer, unassigned) [Compound 255] | – | – | – | – | 100 | 100 | 1 | 100 |
| CC(C)(C)C(O)(Cn1cncn1)C1=NOC(COc2ccc(Cl)cc2)C1 (single isomer, unassigned) [Compound 243] | – | – | – | – | 0 | 0 | 0 | 99 |
| CC1(C(O)(Cn2cncn2)C2=NOC(COc3ccc(Br)cc3)C2)CC1 (single isomer, unassigned) [Compound 238] | – | – | – | – | 99 | 99 | 0 | 100 |
| CC(C)(C)C(O)(Cn1cncn1)C1=NOC(COc2cccc(C(F)(F)F)c2)C1 (single isomer, unassigned) [Compound 253] | – | – | – | – | 99 | 100 | 3 | 100 |
| CCC(C)(C)C(O)(Cn1cncn1)C1=NOC(COc2ccc(C(F)(F)F)cc2)C1 (single isomer, unassigned) [Compound 261] | – | – | – | – | 100 | 100 | 92 | 100 |
| COc1ccc(OCC2CC(C(O)(Cn3cncn3)C(C)(C)C)=NO2)cc1 (single isomer, unassigned) [Compound 259] | – | – | – | – | 99 | 99 | 0 | 92 |
| OC(Cn1cncn1)(C1=NOC(COc2ccc(Cl)cc2)C1)C1(Cl)CC1 (single isomer, unassigned) [Compound 251] | – | – | – | – | 100 | 100 | 3 | 100 |
| CC(C)(C)C(O)(Cn1cncn1)C1=NOC(CCOc2ccc(F)cc2)C1 (single isomer, unassigned) [Compound 269] | – | – | – | – | 99 | 100 | 73 | 100 |
| CC1(C(O)(Cn2cncn2)C2=NOC(COc3ccc(C(F)(F)F)cc3)C2)CC1 (single isomer, unassigned) [Compound 236] | – | – | – | – | 99 | 100 | 16 | 100 |
| OC(COc1ccc(Cl)cc1)(Cn1cncn1)C1=NOC(COc2ccc(Cl)cc2)C1 (centres unmarked) [Compound 271] | – | – | – | – | 42 | 92 | 2 | 100 |
| CC(C)(C)C(O)(Cn1cncn1)C1=NOC(CCOc2ccc(F)cc2)C1 (single isomer, unassigned) [Compound 270] | – | – | – | – | 99 | 100 | 75 | 100 |
| CCC(C)(C)C(O)(Cn1cncn1)C1=NOC(COc2ccc(C(F)(F)F)cc2)C1 (single isomer, unassigned) [Compound 262] | – | – | – | – | 0 | 98 | 41 | 99 |
| CC(C)(C)CC(O)(Cn1cncn1)C1=NOC(COc2ccc(F)cc2)C1 (single isomer, unassigned) [Compound 245] | – | – | – | – | 51 | 98 | 2 | 98 |
| CC(C)(C)CC(O)(Cn1cncn1)C1=NOC(COc2ccc(C(F)(F)F)cc2)C1 (single isomer, unassigned) [Compound 241] | – | – | – | – | – | 90 | 0 | 99 |
| Cc1ccc(OCC2CC(C(O)(Cn3cncn3)C(C)(C)C)=NO2)cc1 (single isomer, unassigned) [Compound 235] | – | – | – | – | – | 99 | 8 | 87 |
| CC1(C(O)(Cn2cncn2)C2=NOC(COc3ccc(Br)cc3)C2)CC1 (single isomer, unassigned) [Compound 239] | – | – | – | – | 98 | 99 | 0 | 100 |
| OC(Cn1cncn1)(C1=NOC(COc2ccc(Cl)cc2)C1)C1CCCCC1 (single isomer, unassigned) [Compound 266] | – | – | – | – | 100 | 100 | 0 | 100 |
| OC(Cn1cncn1)(C1=NOC(COc2ccc(Cl)cc2)C1)C1CCCCC1 (single isomer, unassigned) [Compound 265] | – | – | – | – | 99 | 100 | 1 | 100 |
| CC(C)(C)C(O)(Cn1cncn1)C1=NOC(COCc2ccc(Cl)cc2)C1 (single isomer, unassigned) [Compound 264] | – | – | – | – | 0 | 99 | 0 | 0 |
| CC(C)(C)CC(O)(Cn1cncn1)C1=NOC(COc2ccc(C(F)(F)F)cc2)C1 (single isomer, unassigned) [Compound 240] | – | – | – | – | – | 99 | 0 | 100 |
| Cc1ccc(OCC2CC(C(O)(Cn3cncn3)C(C)(C)C)=NO2)cc1 (single isomer, unassigned) [Compound 234] | – | – | – | – | – | 99 | 0 | 0 |
| CC1(C(O)(Cn2cncn2)C2=NOC(COc3ccc(Cl)cc3)C2)CC1 (single isomer, unassigned) [Compound 225] | – | – | – | – | – | 99 | 0 | 100 |
